Earlier results, collected in patent publication US7074430B2, “Controlled release tramadol tramadol formulation” (Euro-Celtique S.A., priority 1994, dated 2006).

Conditions: value taken for the deconvolution technique

COc1cccc([C@@]2(O)CCCC[C@H]2CN(C)C)c1 (racemic) [tramadol, (±)-trans-2-[(dimethylamino)methyl]-1-(3-methoxyphenyl) cyclohexanol]
elimination half life: 7.8 h
